According to PMC12540682, “Purification and biochemical characterization of L-glutaminase from Aspergillus oryzae with potential biotechnological applications in synthesis of L-theanine and as antitumor agent” (Scientific Reports, 2025):
Values belong to the compound of their own block, whether it stands above or below them.

How the values were obtained:
[1] = system: T1, L-glutaminase (Glut) from Aspergillus oryzae EG-RE9; test: ammonia release (Nessler), Lineweaver-Burk; assay type: biochemical; settings: pH 7.0, 35 °C, 1 h; L-glutamine 0.25-12 mM
T1 construct: gene gtaA; native extracellular enzyme purified from culture filtrate (ammonium sulfate, DEAE-cellulose, Sephadex G-200); 65 kDa by SDS-PAGE

[2] = molecular target: T1, L-glutaminase (Glut) from Aspergillus oryzae EG-RE9; test: residual activity after preincubation, ammonia release (Nessler); assay type: biochemical; settings: 0.1 M phosphate pH 7.0, 20 min preincubation at 37 °C, covalent
Description: residual activity after preincubation, ammonia release (Nessler) on L-glutaminase (Glut) from Aspergillus oryzae EG-RE9 | The IC50 of BD, NBS, DEPC, and NEM for A. oryzae L-glutaminase were […]

Km [1]: 1400 µM
Compound: NC(=O)CC[C@H](N)C(=O)O [L-glutamine]

IC50 ([2]; group-specific modifier of His): 7 mM
Compound: CCOC(=O)OC(=O)OCC [diethyl pyrocarbonate]

Continued, compound first:

Compound: O=C1CCC(=O)N1Br [N-bromosuccinimide]
IC50 ([2]; group-specific modifier of Trp): 5.7 mM

Compound: CCN1C(=O)C=CC1=O [N-ethylmaleimide]
IC50 ([2]; group-specific modifier of Cys): 4.8 mM

Compound: CC(=O)C(C)=O [butanedione]
IC50 ([2]; group-specific modifier of Arg): 6.6 mM
